Reference: patent publication US12258540B2, “Environmentally compatible detergents for inactivation of lipid-enveloped viruses” (TAKEDA PHARMACEUTICAL COMPANY LIMITED, priority 2017, dated 2025)

Legend:
aquatic organisms = conditions: Triton X-100 and its break-down products; recent ecological studies; cited from earlier work
pseudorabies virus (PRV) = type: cell-based; conditions: S/D treatment 0.04%-0.06% detergent, IVIG-containing liquid, 17° C.±1° C., FIG. 9A

Substance: 4-(1,1,3,3-tetramethylbutyl)phenol, ethoxylated [Triton X-100]
- endocrine disrupter behaviour in aquatic organisms (aquatic organisms): can potentially behave as endocrine disrupters in aquatic organisms

Substance: 4-tert-octylbenzyl alcohol polyethoxylate
- inactivation kinetics compared to Triton X-100, PRV (pseudorabies virus (PRV)): identical inactivation kinetics
